Laboratory results published in US10865216B2, “Tricyclic Gyrase inhibitors” (MERCK SHARP & DOHME CORP., priority 2012, dated 2020).
≈ marks a conversion by molar mass, not a printed value.

Legend:
S. aureus ATCC 13709 = assay: MIC, S. aureus ATCC 13709; assay type: cell-based; conditions: Alamar Blue read after overnight incubation at 35° C.; for MIC Sa: S. aureus; for MIC: Staphylococcus aureus, ATCC13709, S. aureus, read-out: MIC Sa
E. coli ATCC 25922 = assay: MIC, E. coli ATCC 25922; assay type: cell-based; conditions: Alamar Blue read after overnight incubation at 35° C.; for MIC Ec: E. coli; for MIC: Escherichia coli, ATCC25922, E. coli, read-out: MIC Ec

SMILES	MIC Sa (S. aureus ATCC 13709)	MIC Ec (E. coli ATCC 25922)	MIC (S. aureus ATCC 13709)	MIC (E. coli ATCC 25922)
CNc1cccc2c1[nH]c1nc(Sc3cnc4ccc[n+]([O-])c4c3)nc(N3C[C@@H]4[C@H](C3)[C@@]4(N)C(N)=O)c12 [Compound 1.19]	>64 µg/mL	>64 µg/mL	–	–
CNc1cccc2c1[nH]c1nc(Sc3cnc4ccc[n+]([O-])c4c3)nc(N3CC(CN)C3)c12 [Compound 1.20]	–	–	4 µg/mL (≈ 8.72 µM)	16 µg/mL (≈ 34.9 µM)
CNc1cccc2c1[nH]c1nc(Sc3cnc4ccc[n+]([O-])c4c3)nc(N3CC(CNC(=O)c4cn(C)nc4C(F)(F)F)C3)c12 [Compound 1.21]	–	–	≤ 0.5 µg/mL	> 64 µg/mL
CNc1cccc2c1[nH]c1nc(Sc3cncc(S(=O)(=O)N(C)C)c3)nc(N3CC4C(N)C4C3)c12 (stereo not shown) [Compound 1.22]	–	–	1 µg/mL (≈ 1.96 µM)	8 µg/mL (≈ 15.7 µM)
CNc1cccc2c1[nH]c1nc(Sc3cnc4ccc[n+]([O-])c4c3)nc(N3CC4C(N)C4C3)c12 (stereo not shown) [Compound 1.23]	≤0.5 µg/mL	≤0.5 µg/mL	–	–
CNc1cccc2c1[nH]c1nc(Sc3cnc4cccnc4c3)nc(N3CC4C(N)C4C3)c12 (stereo not shown) [Compound 1.24]	≤0.5 µg/mL	1 µg/mL (≈ 2.2 µM)	–	–
CNc1cccc2c1[nH]c1nc(Sc3cnc4cccnc4c3)nc(N3CCC4(CC4N)C3)c12 (stereo not shown) [Compound 1.25]	–	4 µg/mL (≈ 8.54 µM)	≤ 0.5 µg/mL	–
CNc1cccc2c1[nH]c1nc(Sc3cnc4cccnc4c3)nc(N3CCC4(CC4N)C3)c12 (stereo not shown) [Compound 1.26]	≤0.5 µg/mL	1 µg/mL (≈ 2.13 µM)	–	–
CNc1cccc2c1[nH]c1nc(Sc3cnc4cccnc4c3)nc(N3CC(N)C4(CC4)C3)c12 (stereo not shown) [Compound 1.27]	–	–	≤ 0.5 µg/mL	1 µg/mL (≈ 2.13 µM)
CNc1cccc2c1[nH]c1nc(Sc3cnc4cccnc4c3)nc(N3CC4CCCNC4C3)c12 (stereo not shown) [Compound 1.28]	–	–	4 µg/mL (≈ 8.29 µM)	16 µg/mL (≈ 33.2 µM)
CNc1cccc2c1[nH]c1nc(Sc3cnc4cccnc4c3)nc(N3CC(N)C3)c12 [Compound 1.29]	–	–	1 µg/mL (≈ 2.33 µM)	> 64 µg/mL
CNc1cccc2c1[nH]c1nc(Sc3cnc4cccnc4c3)nc(N3CC4C(C3)C4(N)CO)c12 (stereo not shown) [Compound 1.30]	–	–	16 µg/mL (≈ 33 µM)	> 64 µg/mL
CNc1cccc2c1[nH]c1nc(Sc3cc4ncccc4[n+]([O-])c3)nc(N3C[C@@H]4[C@@H](N)[C@@H]4C3)c12 [Compound 1.31]	–	–	≤ 0.5 µg/mL	≤ 0.5 µg/mL
CNc1cccc2c1[nH]c1nc(Sc3cnc4ccc[n+]([O-])c4c3)nc(N3CC4CNC4C3)c12 (stereo not shown) [Compound 1.32]	–	–	≤ 0.5 µg/mL	4 µg/mL (≈ 8.5 µM)
CNc1cccc2c1[nH]c1nc(Sc3cnc4ccc[n+]([O-])c4c3)nc(N3CC(C4(N)CC4)C3)c12 [Compound 1.33]	–	–	≤ 0.5 µg/mL	4 µg/mL (≈ 8.25 µM)
CNc1cccc2c1[nH]c1nc(Sc3cnc4ccc[n+]([O-])c4c3)nc(N3CCC[C@@H](N)C3)c12 [Compound 1.34]	–	–	1 µg/mL (≈ 2.12 µM)	4 µg/mL (≈ 8.46 µM)
CNc1cccc2c1[nH]c1nc(Sc3cnc4ccc[n+]([O-])c4c3)nc(N3CC[C@@H](C)[C@@H](N)C3)c12 [Compound 1.35]	–	–	≤ 0.5 µg/mL	2 µg/mL (≈ 4.11 µM)
CNc1cccc2c1[nH]c1nc(Sc3cncc(S(=O)(=O)NC)c3)nc(N3CC4C(N)C4C3)c12 (stereo not shown) [Compound 1.36]	–	–	2 µg/mL (≈ 4.03 µM)	4 µg/mL (≈ 8.05 µM)
CNc1cccc2c1[nH]c1nc(Sc3cnc4cccnc4c3)nc(N3CCC[C@@H](N)C3)c12 [Compound 1.37]	–	–	1 µg/mL (≈ 2.19 µM)	4 µg/mL (≈ 8.76 µM)
CNc1cccc2c1[nH]c1nc(Sc3cnc4ccc[n+]([O-])c4c3)nc(N3CCC4(CC4N)C3)c12 (stereo not shown) [Compound 1.38]	–	–	≤ 0.5 µg/mL	2 µg/mL (≈ 4.13 µM)
CNc1cccc2c1[nH]c1nc(Sc3cnc4ccc[n+]([O-])c4c3)nc(N3CCC4(CC4N)C3)c12 (stereo not shown) [Compound 1.39]	≤0.5 µg/mL	1 µg/mL (≈ 2.06 µM)	–	–
CNc1cccc2c1[nH]c1nc(Sc3cnc4ccc[n+]([O-])c4c3)nc(N3CC(N)C4(CC4)C3)c12 (stereo not shown) [Compound 1.40]	–	–	≤ 0.5 µg/mL	1 µg/mL (≈ 2.06 µM)
CNc1cccc2c1[nH]c1nc(Sc3cncc(S(N)(=O)=O)c3)nc(N3CC4C(N)C4C3)c12 (stereo not shown) [Compound 1.41]	–	–	4 µg/mL (≈ 8.29 µM)	8 µg/mL (≈ 16.6 µM)
CNc1cccc2c1[nH]c1nc(Sc3cncc(S(=O)(=O)NCCO)c3)nc(N3CC4C(N)C4C3)c12 (stereo not shown) [Compound 1.42]	–	–	8 µg/mL (≈ 15.2 µM)	32 µg/mL (≈ 60.8 µM)
CNc1cccc2c1[nH]c1nc(Sc3cncnc3)nc(N3CC4C(N)C4C3)c12 (stereo not shown) [Compound 1.43]	–	–	2 µg/mL (≈ 4.94 µM)	8 µg/mL (≈ 19.8 µM)

SMILES	MIC Sa (S. aureus ATCC 13709)	MIC Ec (E. coli ATCC 25922)	MIC (S. aureus ATCC 13709)	MIC (E. coli ATCC 25922)
CNc1cccc2c1[nH]c1nc(Sc3cncnc3)nc(N3CC(N)C4(CC4)C3)c12 (stereo not shown) [Compound 1.44]	–	–	1 µg/mL (≈ 2.39 µM)	2 µg/mL (≈ 4.78 µM)
CNc1cccc2c1[nH]c1nc(Sc3cnc4cccnc4c3)nc(N3CCCCC(N)C3)c12 (stereo not shown) [Compound 1.45]	–	–	1 µg/mL (≈ 2.12 µM)	4 µg/mL (≈ 8.5 µM)
CNc1cccc2c1[nH]c1nc(Sc3cnc4cccnc4c3)nc(N3CCNCC3)c12 [Compound 1.46]	–	–	2 µg/mL (≈ 4.52 µM)	4 µg/mL (≈ 9.04 µM)
CNc1cccc2c1[nH]c1nc(Sc3cnc4cccnc4c3)nc(N3CC4CNC(C4)C3)c12 (stereo not shown) [Compound 1.47]	–	–	≤ 0.5 µg/mL	2 µg/mL (≈ 4.27 µM)
CNc1cccc2c1[nH]c1nc(Sc3cnc4cccnc4c3)nc(N3CCC(CN)C3)c12 (stereo not shown) [Compound 1.48]	–	–	≤ 0.5 µg/mL	2 µg/mL (≈ 4.38 µM)
CNc1cccc2c1[nH]c1nc(Sc3cnc4ccc[n+]([O-])c4c3)nc(N3CC4C(N)C4C3)c12 (stereo not shown) [Compound 1.49]	≤0.5 µg/mL	≤0.5 µg/mL	–	–
CNc1cc(F)cc2c1[nH]c1nc(Sc3cnc4ccc[n+]([O-])c4c3)nc(N3CC4C(N)C4C3)c12 (stereo not shown) [Compound 1.50]	–	–	≤ 0.5 µg/mL	≤ 0.5 µg/mL
CNc1cc(F)cc2c1[nH]c1nc(Sc3cnc4cccnc4c3)nc(N3CC4C(N)C4C3)c12 (stereo not shown) [Compound 1.51]	–	–	≤ 0.5 µg/mL	≤ 0.5 µg/mL
CNc1cccc2c1[nH]c1nc(Sc3cnc4ccc[n+]([O-])c4c3)nc(N3CC4C(C3)C4NC(=O)[C@H](C)N)c12 (stereo partly shown) [Compound 1.52]	–	–	1 µg/mL (≈ 1.85 µM)	16 µg/mL (≈ 29.5 µM)
CNc1cccc2c1[nH]c1nc(Sc3cnc4cccnc4c3)nc(N3CCC(CO)C3)c12 (stereo not shown) [Compound 1.53]	–	–	≤ 0.5 µg/mL	8 µg/mL (≈ 17.5 µM)
CNc1cccc2c1[nH]c1nc(Sc3cnc4cccnc4c3)nc(N3CCN(c4cnccn4)CC3)c12 [Compound 1.54]	–	–	≤ 0.5 µg/mL	> 64 µg/mL
CNc1cccc2c1[nH]c1nc(Sc3cnc4cccnc4c3)nc(N3CC4CNCC4C3)c12 (stereo not shown) [Compound 1.55]	–	–	1 µg/mL (≈ 2.13 µM)	8 µg/mL (≈ 17.1 µM)
CNc1cccc2c1[nH]c1nc(Sc3cnc4cccnc4c3)nc(N3CCC4(CCNCC4)C3)c12 [Compound 1.56]	–	–	4 µg/mL (≈ 8.05 µM)	32 µg/mL (≈ 64.4 µM)
CNc1cccc2c1[nH]c1nc(Sc3cnc4ccc[n+]([O-])c4c3)nc(N3CC4CC3CN4)c12 (stereo not shown) [Compound 1.57]	–	–	> 32 µg/mL	> 32 µg/mL
CNc1ccc(C)c2c1[nH]c1nc(Sc3cnc4cccnc4c3)nc(N3CC4C(N)C4C3)c12 (stereo not shown) [Compound 1.58]	–	–	≤ 0.5 µg/mL	8 µg/mL (≈ 17.1 µM)
CNc1cccc2c1[nH]c1nc(Sc3cnc4cccnc4c3)nc(N3CCC(C)(N)C3)c12 (stereo not shown) [Compound 1.59]	–	–	1 µg/mL (≈ 2.19 µM)	4 µg/mL (≈ 8.76 µM)
CNc1cccc2c1[nH]c1nc(Sc3cnc4cccnc4c3)nc(N3C[C@@H](N)C[C@H]3C)c12 [Compound 1.60]	–	–	0.5 µg/mL (≈ 1.1 µM)	2 µg/mL (≈ 4.38 µM)
CNc1cccc2c1[nH]c1nc(Sc3cnc4cccnc4c3)nc(N3C[C@H](N)C[C@H]3C)c12 [Compound 1.61]	–	–	8 µg/mL (≈ 17.5 µM)	64 µg/mL (≈ 140 µM)
CNc1cc(F)cc2c1[nH]c1nc(Sc3cnc4cccnc4c3)nc(N3CC(N)C4(CC4)C3)c12 (stereo not shown) [Compound 1.62]	–	–	≤ 0.5 µg/mL	≤ 0.5 µg/mL
CNc1cc(F)cc2c1[nH]c1nc(Sc3cnc4ccc[n+]([O-])c4c3)nc(N3CC(N)C4(CC4)C3)c12 (stereo not shown) [Compound 1.63]	–	–	≤ 0.5 µg/mL	≤ 0.5 µg/mL
CNc1cc(F)cc2c1[nH]c1nc(Sc3cnc4ccc[n+]([O-])c4c3)nc(N3CCC4(CC4N)C3)c12 (stereo not shown) [Compound 1.64]	–	–	≤ 0.5 µg/mL	≤ 0.5 µg/mL
CNc1cc(F)cc2c1[nH]c1nc(Sc3cnc4ccc[n+]([O-])c4c3)nc(N3CCC4(CC4N)C3)c12 (stereo not shown) [Compound 1.65]	≤0.5 µg/mL	≤0.5 µg/mL	–	–
CNc1cccc2c1[nH]c1nc(Sc3cnc4ccc[n+]([O-])c4c3)nc(N3CC4C(N)C4C3)c12 (stereo not shown) [Compound 1.66]	≤0.13 µg/mL	≤0.5 µg/mL	–	–
CNc1cccc2c1[nH]c1nc(Sc3cnc4cccnc4c3)nc(N3CCN(C(C)=O)CC3)c12 [Compound 1.67]	–	–	≤ 0.5 µg/mL	> 64 µg/mL
CNc1cccc2c1[nH]c1nc(Sc3cnc4cccnc4c3)nc(N3C[C@H](N)C[C@@H]3CO)c12 [Compound 1.68]	–	–	16 µg/mL (≈ 33.9 µM)	32 µg/mL (≈ 67.7 µM)
